Data as given in patent US11927585B2, “Solvent-based inks and coatings for food contact applications” (SUN CHEMICAL CORPORATION, priority 2020, dated 2024).
Counter-ions that a name gives are not always drawn. Like-named read-outs stand apart in the source and are kept apart here.

How the values were obtained:
[1] = cited from earlier work
[2] = Worst-case calculation (100% migration), standard EU Cube exposure model; conditions: for Worst Case Calculation of migration in EU Cube model (as a percentage of SML) / Worst-case calculation as a percentage of SML (or restriction), EU Cube: 100% migration; for Worst Case Calculation of migration in EU Cube model (as a percentage of SML): dry coat weight 2.0 g/m^2; for Worst Case Calculation of migration in EU Cube model: Basis for Safety outcome: volatile substance; for Worst-case calculation as a percentage of SML (or restriction), EU Cube: 2.0 g/m^2 dry film
[3] = Worst-case calculation, Application 1 yoghurt pot lid exposure scenario; conditions: 100% migration, 2.0 g/m^2 dry film
[4] = Specific migration limit (SML) from regulation or hazard assessment (TTC, VEGA QSAR, Cramer Class); conditions: source HA (internal hazard assessment), self-derived SML; EU Cube model
[5] = Worst-case calculation, Application 2 cheese packaging wrap exposure scenario; conditions: 100% migration, 2.0 g/m^2 dry film
[6] = substance in ink SBDEV980 (Ex. 4B Red)
[7] = source PR (EU Plastics Regulation No. 10/2011) or SO (Swiss Ordinance), EU Cube model
[8] = substance in ink SBDEV976 (Ex. 4C Cyan)
[9] = substance in ink SBDEV977 (Ex. 4A Yellow)
[10] = substance in ink SBDEV979 (Ex. 4D Black)
[11] = Source of SML or restriction: SO (Swiss Ordinance)
[12] = source of SML or restriction: SO (Swiss Ordinance)

O=C(O)c1c(-c2ccc(-c3ccccc3)cc2)[nH]c2nc(-c3ccc(-c4ccccc4)cc3)nc(-c3ccc(-c4ccccc4)cc3)c12 [2,4,6-Tris-Biphenyl-4-Yl-7H-Pyrrolo[2,3-D]Pyrimidine-5-Carboxylic Acid]
SML (or restriction) ([1]; Source of SML or restriction: Default 10 ppb): 0.01 mg substance/kg food | SML or Restriction (mg substance/kg food) ([1]; source Default 10 ppb): 0.01 mg substance/kg food | Worst Case Calculation of migration in EU Cube model (as a percentage of SML) [2, 6]: 380 percentage of SML

CCO [0000064-17-5, ethanol]
SML or Restriction (mg substance/kg food) [1, 7]: 60 mg substance/kg food | Worst Case Calculation of migration in EU Cube model: Basis for Safety outcome [2, 8]: Converter | Worst Case Calculation of migration in EU Cube model: Basis for Safety outcome [2, 9]: Converter | Worst Case Calculation of migration in EU Cube model: Basis for Safety outcome [2, 10]: Converter | Worst Case Calculation of migration in EU Cube model: Basis for Safety outcome [2, 6]: Converter

CCCOC(C)=O [0000109-60-4, Acetic acid, propyl ester]
SML or Restriction (mg substance/kg food) [1, 7]: 60 mg substance/kg food | Worst Case Calculation of migration in EU Cube model: Basis for Safety outcome [2, 8]: Converter | Worst Case Calculation of migration in EU Cube model: Basis for Safety outcome [2, 9]: Converter | Worst Case Calculation of migration in EU Cube model: Basis for Safety outcome [2, 10]: Converter | Worst Case Calculation of migration in EU Cube model: Basis for Safety outcome [2, 6]: Converter

CCCC1OC(CCC)OC(CCC)O1 (stereo not drawn) [0002396-43-2, 2,4,6-tripropyl-1,3,5-Trioxane]
Worst-case calculation as a percentage of SML (or restriction), Application 1 ([3]; product SBDEV976): 24.0 percentage of SML (or restriction) | Worst-case calculation as a percentage of SML (or restriction), Application 1 ([3]; product SBDEV977): 26.4 percentage of SML (or restriction) | Worst-case calculation as a percentage of SML (or restriction), Application 1 ([3]; product SBDEV980): 26.0 percentage of SML (or restriction) | Worst-case calculation as a percentage of SML (or restriction), Application 1 ([3]; product SBDEV1284): 26.0 percentage of SML (or restriction) | Worst-case calculation as a percentage of SML (or restriction), Application 1 ([3]; product SBDEV1285): 26.4 percentage of SML (or restriction) | Worst-case calculation as a percentage of SML (or restriction), Application 1 ([3]; product SBDEV1286): 24.0 percentage of SML (or restriction) | Worst-case calculation as a percentage of SML (or restriction), Application 1 ([3]; product SBDEV1287): 26.7 percentage of SML (or restriction) | SML or Restriction (mg substance/kg food) [4]: 0.09 mg substance/kg food | Worst-case calculation as a percentage of SML (or restriction), EU Cube ([2]; product SBDEV976): 61 percentage of SML (or restriction) | Worst-case calculation as a percentage of SML (or restriction), EU Cube ([2]; product SBDEV977): 67 percentage of SML (or restriction) | Worst-case calculation as a percentage of SML (or restriction), EU Cube ([2]; product SBDEV980): 60 percentage of SML (or restriction) | Worst-case calculation as a percentage of SML (or restriction), EU Cube ([2]; product SBDEV1284): 66 percentage of SML (or restriction) | Worst-case calculation as a percentage of SML (or restriction), EU Cube ([2]; product SBDEV1285): 67 percentage of SML (or restriction) | Worst-case calculation as a percentage of SML (or restriction), EU Cube ([2]; product SBDEV1286): 61 percentage of SML (or restriction) | Worst-case calculation as a percentage of SML (or restriction), EU Cube ([2]; product SBDEV1287): 68 percentage of SML (or restriction) | Worst Case Calculation of migration in EU Cube model (as a percentage of SML) [2, 8]: 61 percentage of SML | Worst Case Calculation of migration in EU Cube model (as a percentage of SML) [2, 9]: 67 percentage of SML | Worst Case Calculation of migration in EU Cube model (as a percentage of SML) [2, 10]: 65 percentage of SML | Worst Case Calculation of migration in EU Cube model (as a percentage of SML) [2, 6]: 66 percentage of SML | Worst-case calculation as a percentage of SML (or restriction), Application 2 ([5]; product SBDEV976): 87.8 percentage of SML (or restriction) | Worst-case calculation as a percentage of SML (or restriction), Application 2 ([5]; product SBDEV977): 96.5 percentage of SML (or restriction) | Worst-case calculation as a percentage of SML (or restriction), Application 2 ([5]; product SBDEV980): 95.0 percentage of SML (or restriction) | Worst-case calculation as a percentage of SML (or restriction), Application 2 ([5]; product SBDEV1284): 95.0 percentage of SML (or restriction) | Worst-case calculation as a percentage of SML (or restriction), Application 2 ([5]; product SBDEV1285): 96.5 percentage of SML (or restriction) | Worst-case calculation as a percentage of SML (or restriction), Application 2 ([5]; product SBDEV1286): 87.8 percentage of SML (or restriction) | Worst-case calculation as a percentage of SML (or restriction), Application 2 ([5]; product SBDEV1287): 97.9 percentage of SML (or restriction)

N#Cc1ccc(-c2ccccc2)cc1 [0002920-38-9, 4-Phenylbenzonitrile]
Worst-case calculation as a percentage of SML (or restriction), Application 1 ([3]; product SBDEV980): 2.0 percentage of SML (or restriction) | Worst-case calculation as a percentage of SML (or restriction), Application 1 ([3]; product SBDEV1285): 2.0 percentage of SML (or restriction) | SML or Restriction (mg substance/kg food) [4]: 0.09 mg substance/kg food | Worst-case calculation as a percentage of SML (or restriction), EU Cube ([2]; product SBDEV980): 5 percentage of SML (or restriction) | Worst-case calculation as a percentage of SML (or restriction), EU Cube ([2]; product SBDEV1285): 5 percentage of SML (or restriction) | Worst Case Calculation of migration in EU Cube model (as a percentage of SML) [2, 6]: 5 percentage of SML | Worst-case calculation as a percentage of SML (or restriction), Application 2 ([5]; product SBDEV980): 7.2 percentage of SML (or restriction) | Worst-case calculation as a percentage of SML (or restriction), Application 2 ([5]; product SBDEV1285): 7.2 percentage of SML (or restriction)

NC(=O)c1ccc(-c2ccccc2)cc1 [0003815-20-1, 4-Phenylbenzamide]
Worst-case calculation as a percentage of SML (or restriction), Application 1 ([3]; product SBDEV980): 90.5 percentage of SML (or restriction) | Worst-case calculation as a percentage of SML (or restriction), Application 1 ([3]; product SBDEV1285): 90.5 percentage of SML (or restriction) | SML or Restriction (mg substance/kg food) [4]: 0.09 mg substance/kg food | Worst-case calculation as a percentage of SML (or restriction), EU Cube ([2]; product SBDEV980): 230 percentage of SML (or restriction) | Worst-case calculation as a percentage of SML (or restriction), EU Cube ([2]; product SBDEV1285): 230 percentage of SML (or restriction) | Worst Case Calculation of migration in EU Cube model (as a percentage of SML) [2, 6]: 230 percentage of SML | Worst-case calculation as a percentage of SML (or restriction), Application 2 ([5]; product SBDEV980): 331.2 percentage of SML (or restriction) | Worst-case calculation as a percentage of SML (or restriction), Application 2 ([5]; product SBDEV1285): 331.2 percentage of SML (or restriction)

c1ccc(-c2ccc(-c3nc(-c4ccc(-c5ccccc5)cc4)nc(-c4ccc(-c5ccccc5)cc4)n3)cc2)cc1 [0031274-51-8, 1,3,5-Triazine, 2,4,6-Tris([1,1′-Biphenyl]-4-Yl)-]
Worst-case calculation as a percentage of SML (or restriction), Application 1 ([3]; product SBDEV980): 0.1 percentage of SML (or restriction) | Worst-case calculation as a percentage of SML (or restriction), Application 1 ([3]; product SBDEV1285): 0.1 percentage of SML (or restriction) | SML or Restriction (mg substance/kg food) [4]: 5 mg substance/kg food | Worst-case calculation as a percentage of SML (or restriction), EU Cube ([2]; product SBDEV980): 0.3 percentage of SML (or restriction) | Worst-case calculation as a percentage of SML (or restriction), EU Cube ([2]; product SBDEV1285): 0.3 percentage of SML (or restriction) | Worst Case Calculation of migration in EU Cube model (as a percentage of SML) [2, 6]: 0.3 percentage of SML | Worst-case calculation as a percentage of SML (or restriction), Application 2 ([5]; product SBDEV980): 0.4 percentage of SML (or restriction) | Worst-case calculation as a percentage of SML (or restriction), Application 2 ([5]; product SBDEV1285): 0.4 percentage of SML (or restriction)

CCCOC(C)=O [Acetic acid, propyl ester]
SML (or restriction) [1, 11]: 60 mg substance/kg food | SML (or restriction) [1, 12]: 60 mg substance/kg food

CCCCOC(=O)CC(O)(CC(=O)OCCCC)C(=O)OCCCC [Tributyl citrate]
SML (or restriction) [1, 11]: 0.05 mg substance/kg food | SML (or restriction) [1, 12]: 0.05 mg substance/kg food

CCO [ethanol]
SML (or restriction) ([1]; Source of SML or restriction: PR (EU Plastics Regulation No. 10/2011)): 60 mg substance/kg food | SML (or restriction) ([1]; source of SML or restriction: PR (EU Plastics Regulation No. 10/2011)): 60 mg substance/kg food
